The values below come from a melting point compilation (Tetko et al.; mined from patent text by program, amines drawn as free bases though some values may be those of a salt).

By melting point is commonly meant the temperature, or range, at which the solid turns liquid.

For the compound `CC1(c2ccc(O)c([N+](=O)[O-])c2)C(=O)Nc2cc(Cl)cc(Cl)c2C1=O` (configuration not stated), the melting point lay within 239 to 240 °C.

In turn, `CS(=O)C1C=Nc2cc(Br)ccc2C1=O` (configuration not stated) had a melting point of 255 to 256 °C.

`CN1CCC2=C(CCCC2)C1Cc1ccc(O)cc1` (single isomer, unassigned; (-)): the melting point lay within 119 to 120 °C.

`CCOC(=O)CNCc1c(N)ccc(Cl)c1Cl` yielded a melting point of 56 to 60 °C.

Take `CS(=O)(=O)c1ccc(N)c(C#N)c1`: the melting point lay in the range of 155 to 157 °C.

`COC(=O)c1cn(-c2cc(C(=O)OC)c([N+](=O)[O-])cc2C(F)(F)F)cn1` yielded a melting point of 136 to 138 °C.

In turn, `CC(=O)OCC1CCCN(C(=O)c2ccc(NC(=O)c3ccccc3C)cc2)c2ccccc21` (configuration not stated) gave a melting point of 155 to 156 °C.

In turn, `C=CCOc1ccc(-c2ccc(C(=O)OC)cc2)cc1` gave a melting point of 149 °C.

Compound `C=CCc1cc2c(c(CC=C)c1OC1CCCCO1)CCC(=O)N2CCC#N` (configuration not stated) returned a melting point of 93 to 94 °C.

The compound `CC(=O)SC[C@H](NC(=O)C(C)C)C(=O)NCCSC(=O)C(C)(C)C` came in with a melting point of 112 to 114 °C.

For the compound `CC(C)c1cc(C(C)C)c(CC(=O)NS(=O)(=O)Oc2c(C(C)C)cc(N)cc2C(C)C)c(C(C)C)c1`, the melting point fell in the range of 153 to 155 °C.

`CC(=O)NNc1ccnc2c(NC(=O)c3c(Cl)cccc3Cl)cc(C)cc12` gave a melting point of 263 to 266 °C.

Consider `CCCc1c2nc(C(=O)OC)cc(NS(=O)(=O)c3ccc(C)cc3)c2cc2c(=O)cc(C(=O)OCC)oc12`, for which the melting point was 219 °C.

Compound `COc1ccc2c(c1)SCCC2=O` returned a melting point of 49 to 51 °C.

On to `COC(=O)CC(=O)c1cc(C(=O)OC)cc(-n2cccc2)c1`, for which the melting point lay within 82 to 84 °C.

Compound `Cc1[nH]c2ccccc2c1C(=O)CCN(C)C` had a melting point of 172 to 175 °C.

Compound `COc1ccc(C2(C#N)CCC(=NO)CC2)cc1OCC1CC1` (configuration not stated) registered a melting point of 75 to 77 °C.

Compound `Cn1nc(-c2ccc(Cl)cc2)n(Cc2ccccc2)c1=O` displayed a melting point of 90 to 91 °C.

With `CCCN(C1=C(O)CC(C2CCCC2)(C2CCCC2)OC1=O)c1cccc(NS(=O)(=O)c2cccs2)c1`, the melting point fell in the range of 92 to 95 °C.

On to `O=C(NC(=O)N1CCSC1c1ccccc1OCCN1CCN(c2cccc(F)c2)CC1)c1ccccc1` (configuration not stated), for which the melting point lay within 125 to 127 °C.

`Cc1nc(C)n(CCOCC2=C(C(=O)OC(C)C)C(c3ccccc3Cl)C(C(=O)Nc3ccccn3)=CN2)c1C` (configuration not stated): the melting point was in the range of 180 to 182 °C.

The compound `CC(C)(C)c1cc(C(C)(C)c2cc(C(C)(C)C)c(O)c(C(C)(C)C)c2)cc(C(C)(C)C)c1O` registered a melting point of 148 to 154 °C.

On to `O=C(CBr)C1=NO[C@@H](c2ccccc2)C1`, for which the melting point is 31 to 33 °C.

`CCc1cc(OCc2ccc(-c3ccccc3C(=O)O)cc2)c2ccccc2n1` returned a melting point of 204 to 205 °C.

Compound `CCOC(=O)C1(NS(=O)(=O)c2ccc3c(Cl)cnc(Cl)c3c2)CCC1` showed a melting point of 123 to 125 °C.

`O=C(O)C(CC(=O)N1CCOCC1)NS(=O)(=O)c1ccc(-c2ccc(Cl)cc2)cc1` (configuration not stated) came in with a melting point of 144 to 146 °C.

Consider `CC1CCCC(Cl)(Cl)C(=O)N1` (configuration not stated), for which the melting point lay in the range of 132 to 134 °C.

With `CC1(C)Oc2ccc(Cl)cc2C(CS(=O)(=O)NCC(=O)NCCc2ccccc2)C1O` (configuration not stated), the melting point was in the range of 168 to 170 °C.

`COC(=O)c1c(Sc2ccc(OC)cc2)nc(C(=O)c2ccccc2)n1Cc1cc2c(cc1Cl)OCO2` gave a melting point of 166 °C.

Compound `CCc1nc2c(cnn2CC)c(NC2CCOCC2)c1CNC(=O)c1cccc(C(=O)NCc2ccc(Cl)c(-c3cccc(C=O)c3)c2)c1` gave a melting point of 131 to 134 °C.

The compound `CC(C)(C)c1cccc(C(=O)O)c1` gave a melting point of 96 to 97 °C.

`O=C(Nc1cc2nc(-c3ccc(C(=O)C4CCCCC4)cc3)[nH]c2cn1)C1CCCCC1` gave a melting point of 235 °C.

`O=C(O)c1ccc(NC(=O)[C@H](Cc2ccc(-c3ccccc3)cc2)NCP(=O)(O)O)cc1` returned a melting point of 270 to 274 °C.

`Oc1cccc(/C=C/c2ccccc2)c1` returned a melting point of 125 to 126 °C.

`NS(=O)(=O)c1cc2c(Cl)csc2s1`: the melting point was 158 to 160 °C.

The compound `CC(C)Cn1c(=O)n(C)c(=O)c2c(Sc3nccs3)c(C(=O)c3ccnc4ccccc34)sc21` had a melting point of 167 to 168 °C.

The compound `COP(=O)(OC)c1ccc(-c2coc3ccc(-c4nnc(C)o4)cc23)cc1` registered a melting point of 168 to 169 °C.

With `CCS(=O)(=O)N(C)c1c(Cl)c(Cl)cc2[nH]c(=O)c(=O)[nH]c12`, the melting point is > 300 °C.

In turn, `COC(=O)CSCC(NC(=O)OC(C)(C)C)c1ccc(F)cc1` (configuration not stated) registered a melting point of 61 to 62 °C.

The compound `COc1ccc(C(=O)Oc2ccc(S(N)(=O)=O)cc2)cc1C12CC3CC(CC(C3)C1)C2` came in with a melting point of 223 to 224 °C.

For `O=C1CCC(N2Cc3c(OCc4ccc(CN5CCN(CC(F)(F)F)CC5)cc4)cccc3C2=O)C(=O)N1` (configuration not stated), the melting point fell in the range of 133 to 135 °C.

`CCCN(c1ccncc1)N1C(=O)C2(CCN(C)CC2)c2ccccc21`: the melting point lay within 125 to 127 °C.

For `COC(=O)C(=Cc1cccc([N+](=O)[O-])c1)C(=O)OC`, the melting point fell in the range of 78 to 80 °C.

Consider `OC1c2cc(OCc3ccc4cc(F)ccc4n3)ccc2OCC1Cc1cncnc1` (configuration not stated), for which the melting point was 188 to 191 °C.

With `CCOC(=O)C(=O)Nc1ccncc1`, the melting point was 110 to 113 °C.

Take `CC1(C)OC(=O)C(c2cccc(F)c2)=C1c1ccc(S(C)(=O)=O)cc1`: the melting point was determined as 173 °C.

`COC(=O)CC1CC(c2ccc(C#N)cc2F)=NO1` (configuration not stated) displayed a melting point of 92 to 94 °C.

Consider `CS(=O)(=O)c1ccc(C(=O)N[C@H]2CC[C@H](CCN3CCC(c4cccc5c4CCO5)CC3)CC2)cc1`, for which the melting point came out at 236 °C.

As to `CCOC(=O)C(CC(=O)c1ccc(OC)cc1)(NC(C)=O)C(=O)OCC`, the melting point was in the range of 120 to 122 °C.

`COC(=O)C1CN1C(C)=O` (configuration not stated) had a melting point of 39 to 40 °C.

Consider `CCCCOC(=O)[C@H]1CN(c2cc(F)c(N3CCSCC3)c(F)c2)C(=O)O1`, for which the melting point lay within 102 to 103 °C.

On to `CC(C(=O)c1ccccc1)=C1CCCN1`, for which the melting point lay in the range of 91 to 92 °C.

In the case of `CNC(=NCCSCc1[nH]cnc1C)NS(C)(=O)=O`, the melting point fell in the range of 133 to 134 °C.

With `O=C(Nc1ccc2[nH]ncc2c1)OC(c1cccc(C(=O)Nc2ccccc2)c1)[C@@H]1CCCCN1` (some centres not stated), the melting point was 150 °C.

Consider `CCOC(=O)c1csnc1-c1ccc(Cl)cc1`, for which the melting point lay in the range of 70.5 to 71.5 °C.

`COc1cc(OC)c(CN2CCc3cc(O)c(OC)cc3C2)c(OC)c1` registered a melting point of 150 to 151 °C.

`OCN1CCN=C1CC(c1ccccc1)c1ccccc1`: the melting point lay within 161 to 163 °C.

For the compound `CCn1c(-c2ccc3c(c2)OCCO3)cc(=Nc2c(C)cc(C)cc2C)n(C)c1=O`, the melting point lay within 75 to 82 °C.

With `O=S(=O)(O)c1ccccc1Nc1ccnc2cc(Cl)ccc12`, the melting point is > 300 °C.

Compound `COc1ccc(C=Nc2ccccc2SCc2ncon2)cc1OC` yielded a melting point of 146 °C.

`CS(=O)(=O)Nc1ccc([N+](=O)[O-])nc1` gave a melting point of 187 to 189 °C.

In the case of `COC(=O)c1c(Cl)cc(Cl)c2cc(Cl)ccc12`, the melting point fell in the range of 110 to 112 °C.

Compound `O=C1c2ccccc2C(=O)N1CCCSc1nccc(NC(=S)NCC(F)(F)F)n1` displayed a melting point of 214 to 215 °C.

Regarding `NC(=O)C(Nc1cccc2c1C(=O)CO2)c1c(Cl)cccc1Cl` (configuration not stated), the melting point came to 245 °C.

On to `CCNS(=O)(=O)c1ccc(N)c(C(=O)N2CCN(C)CC2)c1`, for which the melting point fell in the range of 175 to 177 °C.

As to `O=C(NCCOc1ccc(CC(Oc2ccccc2)C(=O)O)cc1[N+](=O)[O-])c1ccc(-c2ccccn2)cc1` (configuration not stated), the melting point was 178 to 179 °C.

Compound `Cc1cc(C=NO)cc(Oc2nc(Cl)nc(Cl)c2C(C)C)c1` yielded a melting point of 185 to 187 °C.

Take `O=C(c1ccc(Cl)cc1)c1ccc(Cl)[nH]1`: the melting point is 210 to 211 °C.

For `O=C(CCl)Nc1c(S)cccc1Cl`, the melting point was 186 to 187 °C.

Compound `CC(=O)c1c(NC(=O)C(C)(C)C)cccc1C(F)(F)F` had a melting point of 142 °C.

`CS(=O)c1ccc(C#N)cc1` (configuration not stated): the melting point is 87 to 90 °C.

Regarding `CCCCN(CCCC)c1ccc(C=CC2=CC(=CC=CC3=C(C#N)C(=C(C#N)C#N)OC3(C)C(F)(F)F)CC(C)(C)C2)c(OC)c1` (configuration not stated), the melting point lay in the range of 196 to 201 °C.

`CS(=O)(=O)Nc1ccc(Cl)c([N+](=O)[O-])c1` yielded a melting point of 163 °C.

`Cc1ccc(NC(=O)c2ccc(CN3CCOCC3)c(C(F)(F)F)c2)cc1-c1ccc2cnncc2c1` yielded a melting point of 160 to 162 °C.

`CC(C)(C)ONC(=O)n1cc(C(=O)C2CSC(c3cccnc3)N2)c2ccccc21` (configuration not stated) had a melting point of 101 to 103 °C.

For the compound `CCOC(=O)N1CCC(=C2c3ccccc3CCn3ncnc32)CC1`, the melting point is 106 °C.

In turn, `Nc1cc(N2C(=O)COc3ccccc32)ccn1` had a melting point of 189 to 190 °C.

As to `CC(C)(C)OC(=O)NC1CCC(C(=O)N2CCC(c3[nH]nc4c3C(=O)c3c(NC(=O)NN5CCOCC5)cccc3-4)CC2)CC1` (configuration not stated), the melting point lay in the range of 178 to 180 °C.

The compound `CCCCCCCCCCNC(=O)C1CSC(c2cccnc2)N1` (configuration not stated) gave a melting point of 88 °C.

In the case of `CCCOc1ccccc1-c1nc2c(CCC)nn(C)c2c(=O)[nH]1`, the melting point was 115 to 116 °C.

For `O=[N+]([O-])c1cc(Cl)ccc1NCCO`, the melting point lay within 98 to 100 °C.

`O=CN1CCC(C(=O)N2CCN3C(=O)OC(c4ccccc4)(c4ccccc4)C3C2)CC1` (configuration not stated) displayed a melting point of 133 to 136 °C.

In turn, `COc1ccccc1N1CCN(Cc2ccccc2)CC1=O` yielded a melting point of 109 to 111 °C.

As to `COc1ccc2c(Nc3ccc4cn[nH]c4c3)c(C#N)cnc2c1`, the melting point is > 250 °C.

Compound `O=C(C=Cc1ccccc1)c1cc(Cl)ccc1O` yielded a melting point of 142 to 145 °C.

`CC(O)(c1cccnc1)C1CCN(C[C@@]23C[C@@H](c4ccccc42)c2ccc(Cl)cc23)CC1` (single isomer, unassigned) registered a melting point of 87 to 93 °C.

Turning to `CC(=O)OCCn1nc(-c2cc(C(C)(C)C)c(O)c(C(C)(C)C)c2)c2c(C)cc(C)nc21`, the melting point was in the range of 110 to 111 °C.
